Results reported in US20080125454A1, “Methods and Compositions for Treatment of Scleritis and Related Disorders” (Wyeth, priority 2006, published 2008).

Molecular target: T1, P-selectin binding to P-selectin glycoprotein ligand-1 (PSGL-1) (Homo sapiens, UniProt P16109)
T1 construct: truncated form of human P-selectin comprised of the lectin and EGF domains (P-LE)
T1 sequence (P16109 42-198): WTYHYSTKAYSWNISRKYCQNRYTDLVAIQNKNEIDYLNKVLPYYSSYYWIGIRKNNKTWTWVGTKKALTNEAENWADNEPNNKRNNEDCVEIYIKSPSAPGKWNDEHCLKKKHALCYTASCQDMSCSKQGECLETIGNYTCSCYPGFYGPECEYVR
Test: Biacore inhibition of P-selectin binding to PSGL-1 (P-LE binding to immobilized SGP-3)
Settings: 1 mM; read-out: percent inhibition of binding (positive control)
Method: Compounds of the present teachings can be assayed for selectin inhibitory activity using any of the procedures known in the art. One convenient procedure is the determination of IC50 values for inhibition of P-selectin binding to P-selectin glycoprotein ligand-1 (PSGL-1) using a Biacore instrument.
The Biacore 3000 is an instrument that uses surface plasmon resonance to detect binding of a solution phase analyte to an immobilized ligand on a sensor chip surface. The analyte sample is injected under flow using a microfluidic system. Binding of analyte to ligand causes a change in the angle of refracted light at the surface of the sensor chip, measured by the Biacore instrument in resonance units (RUs).
SGP-3 is a purified sulfoglycopeptide form of human PSGL-1 that contains the P-selectin binding determinants (See Somers et al., 2000, Cell 103, 467-479). […]
The Biacore assay measures the signal in RU produced by binding of P-LE to SGP-3 in the presence and absence of inhibitors. Percent inhibition of binding is calculated by dividing the inhibited signal by the uninhibited signal subtracting this value from one then multiplying by one hundred. […] The data from this titration are plotted, RU values vs. concentration, and the IC50 is determined by extrapolation from the plot. […]

CC1(C)[C@@H](O[C@H]2O[C@H](C(=O)O)[C@@H](O)[C@H](O)[C@H]2O[C@@H]2O[C@H](C(=O)O)[C@@H](O)[C@H](O)[C@H]2O)CC[C@]2(C)[C@H]3C(=O)C=C4[C@@H]5C[C@@](C)(C(=O)O)CC[C@]5(C)CC[C@@]4(C)[C@]3(C)CC[C@@H]12 [Glycyrrhizin]
inhibition at 1000 µM: 50%
